Among the data in ChEMBL document CHEMBL1150976, “The selectivity of protein kinase inhibitors: a further update” (Biochem J, 2007) are Activity values, retold here.

For experiment [1], the target named is T1, Dual specificity tyrosine-phosphorylation-regulated kinase 3 (Homo sapiens) (UniProt O43781).
T1 sequence (whole entry): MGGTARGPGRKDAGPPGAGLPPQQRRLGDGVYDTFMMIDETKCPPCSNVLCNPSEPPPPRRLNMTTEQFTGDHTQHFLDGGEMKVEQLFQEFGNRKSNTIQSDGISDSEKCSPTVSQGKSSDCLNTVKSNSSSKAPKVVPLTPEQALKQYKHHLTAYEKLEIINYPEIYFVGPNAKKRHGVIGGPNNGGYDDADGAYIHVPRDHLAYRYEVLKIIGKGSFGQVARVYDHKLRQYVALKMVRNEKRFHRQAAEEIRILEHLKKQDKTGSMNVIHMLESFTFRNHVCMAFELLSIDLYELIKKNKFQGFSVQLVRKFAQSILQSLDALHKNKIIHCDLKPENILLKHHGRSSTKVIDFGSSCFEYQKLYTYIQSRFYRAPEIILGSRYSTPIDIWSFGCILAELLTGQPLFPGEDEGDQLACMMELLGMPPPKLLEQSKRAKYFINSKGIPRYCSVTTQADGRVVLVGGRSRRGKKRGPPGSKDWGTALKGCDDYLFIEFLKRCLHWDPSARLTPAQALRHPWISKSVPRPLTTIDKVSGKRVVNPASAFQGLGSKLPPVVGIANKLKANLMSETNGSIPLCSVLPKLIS
Put plainly: Percentage DYRK3 activity remaining in the presence of 25uM inhibitor.

For experiment [2], the target named is Ribosomal protein S6 kinase beta-1 (Homo sapiens, UniProt P23443). Kind of experiment: Percentage S6K1 activity remaining in the presence of 25uM inhibitor.
Experiment [3] concerns the target MAP kinase-activated protein kinase 2 (Homo sapiens) (UniProt P49137). Put plainly: Percentage MAPKAPK2 activity remaining in the presence of […]uM inhibitor. To be noted: at 25 µM.
Experiment [4] addresses Mitogen-activated protein kinase 10 (Homo sapiens) (UniProt P53779). Kind of experiment: Percentage JNK3 activity remaining in the presence of 25uM inhibitor.
The target of experiment [5] is Serine/threonine-protein kinase PAK 5 (Homo sapiens) (UniProt Q9P286). Kind of experiment: Percentage PAK5 activity remaining in the presence of 25uM inhibitor.
Experiment [6] addresses Protein kinase C alpha type (Homo sapiens) (UniProt P17252). Kind of experiment: Percentage PKCalpha activity remaining in the presence of 25uM inhibitor.
Experiment [7] has as its target Mitogen-activated protein kinase 9 (Homo sapiens, UniProt P45984). Kind of experiment: Percentage JNK2 activity remaining in the presence of 25uM inhibitor.
For experiment [8], the target named is T2, Protein kinase C zeta type (Homo sapiens) (UniProt Q05513).
T2 sequence (whole entry): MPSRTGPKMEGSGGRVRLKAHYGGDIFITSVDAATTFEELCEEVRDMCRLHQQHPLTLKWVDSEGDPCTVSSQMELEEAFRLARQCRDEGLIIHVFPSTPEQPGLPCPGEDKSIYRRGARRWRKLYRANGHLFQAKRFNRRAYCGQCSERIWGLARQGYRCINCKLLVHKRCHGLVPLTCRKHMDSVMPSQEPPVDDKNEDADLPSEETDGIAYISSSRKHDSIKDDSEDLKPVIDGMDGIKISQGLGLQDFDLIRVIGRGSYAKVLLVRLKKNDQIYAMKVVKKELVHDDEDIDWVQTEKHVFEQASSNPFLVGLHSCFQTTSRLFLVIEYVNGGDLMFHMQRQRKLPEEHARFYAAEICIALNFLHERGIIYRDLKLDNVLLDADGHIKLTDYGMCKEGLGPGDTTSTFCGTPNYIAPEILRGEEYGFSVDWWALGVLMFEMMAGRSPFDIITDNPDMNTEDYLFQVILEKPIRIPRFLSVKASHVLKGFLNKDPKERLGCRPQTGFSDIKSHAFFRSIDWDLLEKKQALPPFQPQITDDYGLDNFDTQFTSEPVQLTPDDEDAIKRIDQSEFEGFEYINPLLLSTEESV
Kind of experiment: Percentage PKCzeta activity remaining in the presence of 2uM inhibitor.

The target in experiment [9] is MAP kinase-interacting serine/threonine-protein kinase 1 (Homo sapiens) (UniProt Q9BUB5). Put plainly: Percentage MNK1 activity remaining in the presence of 2uM inhibitor.
Experiment [10] has as its target RAC-alpha serine/threonine-protein kinase (Homo sapiens) (UniProt P31749). Kind of experiment: Percentage PKBalpha activity remaining in the presence of 2uM inhibitor.
For experiment [11], the target named is T3, Serine/threonine-protein kinase D1 (Homo sapiens) (UniProt Q15139).
T3 sequence (whole entry): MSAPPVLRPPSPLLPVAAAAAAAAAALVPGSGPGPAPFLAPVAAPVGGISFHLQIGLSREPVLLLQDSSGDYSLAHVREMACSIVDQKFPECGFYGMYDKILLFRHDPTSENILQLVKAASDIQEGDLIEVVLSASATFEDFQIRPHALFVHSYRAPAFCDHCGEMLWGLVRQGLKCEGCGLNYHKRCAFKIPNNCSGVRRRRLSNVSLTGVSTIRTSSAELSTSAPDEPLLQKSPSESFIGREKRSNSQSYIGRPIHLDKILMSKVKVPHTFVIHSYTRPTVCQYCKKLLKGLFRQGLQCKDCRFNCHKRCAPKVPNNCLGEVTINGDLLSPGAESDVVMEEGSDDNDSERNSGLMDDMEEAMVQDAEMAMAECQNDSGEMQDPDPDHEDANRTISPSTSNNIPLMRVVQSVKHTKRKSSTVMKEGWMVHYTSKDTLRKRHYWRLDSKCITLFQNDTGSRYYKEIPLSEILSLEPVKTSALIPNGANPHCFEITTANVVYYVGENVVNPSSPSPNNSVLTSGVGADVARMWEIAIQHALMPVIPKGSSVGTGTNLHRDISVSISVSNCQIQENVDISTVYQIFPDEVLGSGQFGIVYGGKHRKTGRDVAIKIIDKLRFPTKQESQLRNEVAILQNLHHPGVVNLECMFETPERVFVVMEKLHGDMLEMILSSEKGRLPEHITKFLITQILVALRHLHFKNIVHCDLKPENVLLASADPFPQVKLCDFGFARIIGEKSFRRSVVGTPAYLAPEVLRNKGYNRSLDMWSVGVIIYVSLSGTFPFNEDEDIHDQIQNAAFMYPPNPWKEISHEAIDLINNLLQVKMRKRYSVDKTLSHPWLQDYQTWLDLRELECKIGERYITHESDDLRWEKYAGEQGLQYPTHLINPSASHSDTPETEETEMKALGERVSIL
Put plainly: Percentage PKD1 activity remaining in the presence of 2uM inhibitor.

Experiment [12] has as its target Mitogen-activated protein kinase 8 (Homo sapiens, UniProt P45983). Put plainly: Percentage JNK1 activity remaining in the presence of 3uM inhibitor.
Experiment [13] has as its target Proto-oncogene tyrosine-protein kinase Src (Gallus gallus) (UniProt P00523). Put plainly: Percentage Src activity remaining in the presence of 3uM inhibitor. To be noted: filed as antagonist.
Experiment [14] deals with Calcium/calmodulin-dependent protein kinase type 1 (Homo sapiens) (UniProt Q14012). Kind of experiment: Percentage CaMK1 activity remaining in the presence of 3uM inhibitor.
Experiment [15] addresses Homeodomain-interacting protein kinase 3 (Homo sapiens) (UniProt Q9H422). Kind of experiment: Percentage HIPK3 activity remaining in the presence of 3uM inhibitor.
The target of experiment [16] is RAC-alpha serine/threonine-protein kinase (Homo sapiens) (UniProt P31749). Kind of experiment: Percentage PKBalpha activity remaining in the presence of 3uM inhibitor.
Chain of RAC-alpha serine/threonine-protein kinase (Homo sapiens) (P31749 whole entry): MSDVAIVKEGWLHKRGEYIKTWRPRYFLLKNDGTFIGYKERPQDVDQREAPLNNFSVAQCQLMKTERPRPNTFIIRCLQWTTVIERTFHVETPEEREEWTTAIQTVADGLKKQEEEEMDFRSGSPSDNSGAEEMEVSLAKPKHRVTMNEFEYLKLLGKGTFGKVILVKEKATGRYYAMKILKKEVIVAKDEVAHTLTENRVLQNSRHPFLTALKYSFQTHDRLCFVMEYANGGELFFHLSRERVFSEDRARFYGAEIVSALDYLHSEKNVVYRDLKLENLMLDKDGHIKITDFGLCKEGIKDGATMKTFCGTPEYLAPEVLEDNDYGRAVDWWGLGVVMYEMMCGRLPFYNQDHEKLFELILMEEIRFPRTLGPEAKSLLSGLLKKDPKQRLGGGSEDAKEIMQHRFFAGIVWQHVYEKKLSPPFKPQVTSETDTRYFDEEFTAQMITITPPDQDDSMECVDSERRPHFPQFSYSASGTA

Chain of MAP kinase-activated protein kinase 2 (Homo sapiens) (P49137 whole entry, looked up): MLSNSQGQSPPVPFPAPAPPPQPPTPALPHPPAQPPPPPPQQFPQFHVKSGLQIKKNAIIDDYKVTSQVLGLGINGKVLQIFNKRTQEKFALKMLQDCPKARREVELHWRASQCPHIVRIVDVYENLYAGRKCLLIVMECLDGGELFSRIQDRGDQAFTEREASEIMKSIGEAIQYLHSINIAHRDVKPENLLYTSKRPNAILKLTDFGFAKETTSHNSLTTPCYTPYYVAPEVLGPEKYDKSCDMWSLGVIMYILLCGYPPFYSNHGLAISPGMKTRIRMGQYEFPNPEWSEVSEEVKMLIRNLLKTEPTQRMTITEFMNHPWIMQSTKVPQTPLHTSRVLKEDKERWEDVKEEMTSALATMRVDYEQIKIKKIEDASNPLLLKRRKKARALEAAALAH
Chain of Serine/threonine-protein kinase PAK 5 (Homo sapiens) (Q9P286 whole entry, looked up): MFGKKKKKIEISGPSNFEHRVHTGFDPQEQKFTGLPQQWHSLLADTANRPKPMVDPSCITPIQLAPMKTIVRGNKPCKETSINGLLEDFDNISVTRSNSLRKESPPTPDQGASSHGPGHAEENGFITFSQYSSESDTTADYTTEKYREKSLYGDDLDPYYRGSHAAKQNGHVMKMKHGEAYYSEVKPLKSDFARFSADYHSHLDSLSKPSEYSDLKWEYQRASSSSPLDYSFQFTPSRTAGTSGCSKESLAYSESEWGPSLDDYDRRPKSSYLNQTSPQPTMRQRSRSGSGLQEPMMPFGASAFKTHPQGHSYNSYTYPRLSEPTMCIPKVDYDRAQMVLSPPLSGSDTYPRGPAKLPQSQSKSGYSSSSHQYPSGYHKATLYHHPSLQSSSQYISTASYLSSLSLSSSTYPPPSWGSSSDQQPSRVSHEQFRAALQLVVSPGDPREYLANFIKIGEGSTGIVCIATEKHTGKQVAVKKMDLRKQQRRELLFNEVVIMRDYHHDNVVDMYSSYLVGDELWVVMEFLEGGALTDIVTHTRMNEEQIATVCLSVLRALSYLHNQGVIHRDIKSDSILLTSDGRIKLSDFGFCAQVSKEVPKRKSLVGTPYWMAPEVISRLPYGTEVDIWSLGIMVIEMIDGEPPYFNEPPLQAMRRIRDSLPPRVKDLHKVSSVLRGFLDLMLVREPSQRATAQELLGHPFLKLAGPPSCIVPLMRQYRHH
Chain of Ribosomal protein S6 kinase beta-1 (P23443 whole entry, looked up): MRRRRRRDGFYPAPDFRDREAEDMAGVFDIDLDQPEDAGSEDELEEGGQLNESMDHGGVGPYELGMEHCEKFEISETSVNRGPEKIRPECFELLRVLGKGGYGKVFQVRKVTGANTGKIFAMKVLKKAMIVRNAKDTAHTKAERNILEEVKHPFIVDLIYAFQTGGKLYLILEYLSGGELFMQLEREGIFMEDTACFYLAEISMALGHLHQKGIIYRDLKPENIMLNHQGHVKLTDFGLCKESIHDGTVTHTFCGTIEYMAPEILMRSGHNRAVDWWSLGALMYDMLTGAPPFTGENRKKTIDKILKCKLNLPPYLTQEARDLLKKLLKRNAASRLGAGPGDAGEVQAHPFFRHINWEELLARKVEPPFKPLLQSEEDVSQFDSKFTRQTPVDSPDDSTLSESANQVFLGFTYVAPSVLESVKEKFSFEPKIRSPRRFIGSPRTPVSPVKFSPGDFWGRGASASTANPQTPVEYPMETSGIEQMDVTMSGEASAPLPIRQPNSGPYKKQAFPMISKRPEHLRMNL
Chain of Mitogen-activated protein kinase 10 (Homo sapiens) (P53779 whole entry): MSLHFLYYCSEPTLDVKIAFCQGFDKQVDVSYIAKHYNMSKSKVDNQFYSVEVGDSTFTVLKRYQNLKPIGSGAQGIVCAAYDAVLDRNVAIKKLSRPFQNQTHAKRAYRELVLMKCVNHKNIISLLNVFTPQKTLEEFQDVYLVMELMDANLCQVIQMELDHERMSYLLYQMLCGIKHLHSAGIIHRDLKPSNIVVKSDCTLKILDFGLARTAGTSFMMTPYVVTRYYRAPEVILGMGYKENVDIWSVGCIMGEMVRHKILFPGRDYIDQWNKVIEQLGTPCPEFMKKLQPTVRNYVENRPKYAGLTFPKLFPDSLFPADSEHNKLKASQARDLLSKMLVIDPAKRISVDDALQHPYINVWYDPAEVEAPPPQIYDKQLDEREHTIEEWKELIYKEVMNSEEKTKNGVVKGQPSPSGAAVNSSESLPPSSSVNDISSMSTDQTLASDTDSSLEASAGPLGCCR
Chain of Mitogen-activated protein kinase 9 (P45984 whole entry, looked up): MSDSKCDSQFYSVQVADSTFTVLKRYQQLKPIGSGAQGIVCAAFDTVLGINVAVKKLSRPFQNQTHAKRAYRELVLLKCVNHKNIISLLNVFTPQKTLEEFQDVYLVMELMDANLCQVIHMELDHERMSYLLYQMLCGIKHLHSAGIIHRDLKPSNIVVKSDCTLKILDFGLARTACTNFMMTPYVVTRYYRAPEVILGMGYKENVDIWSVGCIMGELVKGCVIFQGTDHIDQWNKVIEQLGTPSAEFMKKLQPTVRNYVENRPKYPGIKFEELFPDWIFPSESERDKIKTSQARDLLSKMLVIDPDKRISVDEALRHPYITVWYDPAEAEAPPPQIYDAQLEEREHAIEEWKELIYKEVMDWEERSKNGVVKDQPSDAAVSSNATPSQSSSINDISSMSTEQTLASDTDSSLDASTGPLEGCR
Chain of Homeodomain-interacting protein kinase 3 (Homo sapiens) (Q9H422 whole entry, looked up): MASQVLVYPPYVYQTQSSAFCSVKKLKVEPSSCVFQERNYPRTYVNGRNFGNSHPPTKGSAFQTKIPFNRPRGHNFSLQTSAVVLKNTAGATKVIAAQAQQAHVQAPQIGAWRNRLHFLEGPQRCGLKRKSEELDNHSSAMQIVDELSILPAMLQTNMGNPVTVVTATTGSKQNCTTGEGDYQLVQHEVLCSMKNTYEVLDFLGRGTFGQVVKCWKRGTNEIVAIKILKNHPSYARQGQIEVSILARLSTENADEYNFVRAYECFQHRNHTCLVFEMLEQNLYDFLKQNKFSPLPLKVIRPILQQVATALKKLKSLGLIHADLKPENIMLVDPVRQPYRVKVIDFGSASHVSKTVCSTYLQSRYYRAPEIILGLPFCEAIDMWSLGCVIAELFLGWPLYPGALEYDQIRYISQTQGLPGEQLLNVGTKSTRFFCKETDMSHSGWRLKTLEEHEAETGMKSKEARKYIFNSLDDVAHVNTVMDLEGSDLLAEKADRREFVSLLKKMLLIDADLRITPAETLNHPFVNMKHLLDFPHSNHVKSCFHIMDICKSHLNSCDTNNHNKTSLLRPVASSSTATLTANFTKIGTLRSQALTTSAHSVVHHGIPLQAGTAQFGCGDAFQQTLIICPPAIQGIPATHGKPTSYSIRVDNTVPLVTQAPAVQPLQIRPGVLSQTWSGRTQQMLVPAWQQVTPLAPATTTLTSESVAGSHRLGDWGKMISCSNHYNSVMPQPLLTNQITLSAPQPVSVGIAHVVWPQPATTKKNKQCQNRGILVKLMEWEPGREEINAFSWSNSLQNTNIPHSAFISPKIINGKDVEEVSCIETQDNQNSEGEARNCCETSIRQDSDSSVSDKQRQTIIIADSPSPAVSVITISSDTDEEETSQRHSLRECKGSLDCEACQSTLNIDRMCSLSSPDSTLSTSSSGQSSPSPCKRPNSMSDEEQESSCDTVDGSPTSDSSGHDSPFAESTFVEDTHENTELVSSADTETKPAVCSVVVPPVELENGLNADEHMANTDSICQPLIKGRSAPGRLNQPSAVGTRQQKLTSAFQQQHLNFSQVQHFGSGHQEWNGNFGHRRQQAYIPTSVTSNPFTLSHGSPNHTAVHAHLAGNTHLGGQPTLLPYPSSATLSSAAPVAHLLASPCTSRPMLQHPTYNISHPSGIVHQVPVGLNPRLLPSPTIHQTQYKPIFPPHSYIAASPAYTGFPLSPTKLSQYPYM
Chain of Calcium/calmodulin-dependent protein kinase type 1 (Homo sapiens) (Q14012 whole entry, looked up): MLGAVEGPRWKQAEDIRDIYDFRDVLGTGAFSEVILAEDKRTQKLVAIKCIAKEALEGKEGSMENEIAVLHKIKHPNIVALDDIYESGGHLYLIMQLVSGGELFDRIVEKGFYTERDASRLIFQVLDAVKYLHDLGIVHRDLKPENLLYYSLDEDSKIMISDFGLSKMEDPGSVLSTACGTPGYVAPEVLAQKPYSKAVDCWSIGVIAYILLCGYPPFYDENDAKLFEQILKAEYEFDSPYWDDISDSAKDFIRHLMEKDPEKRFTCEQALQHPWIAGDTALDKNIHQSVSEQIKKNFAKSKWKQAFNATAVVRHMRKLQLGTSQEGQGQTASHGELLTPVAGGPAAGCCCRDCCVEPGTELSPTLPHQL
Chain of Mitogen-activated protein kinase 8 (P45983 whole entry): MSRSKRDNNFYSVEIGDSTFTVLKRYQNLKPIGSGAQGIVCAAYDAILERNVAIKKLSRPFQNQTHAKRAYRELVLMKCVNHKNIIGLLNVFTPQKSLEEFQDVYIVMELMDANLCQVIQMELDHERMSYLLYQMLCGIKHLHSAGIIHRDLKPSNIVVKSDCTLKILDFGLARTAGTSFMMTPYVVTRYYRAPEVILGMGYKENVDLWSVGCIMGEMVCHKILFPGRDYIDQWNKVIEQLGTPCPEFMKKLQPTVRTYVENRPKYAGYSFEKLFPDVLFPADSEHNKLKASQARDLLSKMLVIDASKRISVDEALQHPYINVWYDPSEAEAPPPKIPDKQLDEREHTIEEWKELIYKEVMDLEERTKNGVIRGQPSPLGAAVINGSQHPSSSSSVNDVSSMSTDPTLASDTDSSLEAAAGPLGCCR

In the case of `COc1cc(OC)c(/C=C2/C(=O)Nc3ccccc32)c(OC)c1`, the Activity in experiment [1] amounted to 89%; in experiment [2] it was 84%; in experiment [3] it was 88%; in experiment [4], 93%; in [5], 84%.
Regarding `NCCNS(=O)(=O)c1ccc(Cl)c2ccncc12`, the Activity is 86% in experiment [6]; 46% in experiment [1] (filed as antagonist); 49% in experiment [2] (filed as antagonist); 85% in experiment [3]; 87% in experiment [7]; 103% in experiment [4]. In addition, the Activity in experiment [5] came to 86%.
`Cn1cc(C2=C(c3ccc(Cl)cc3Cl)C(=O)NC2=O)c2ccccc21`: the Activity amounted to 81% in experiment [8], 85% in experiment [9], 88% in experiment [10] and 100% in experiment [11].
In the case of `Cc1ccc(-c2c(C(=O)CF)n(CCCO)c3ncnc(N)c23)cc1`, the Activity in [12] is 81%; in [13] it was 10%; in experiment [14], 77%; in [15], 79%; in experiment [16], 82%.
